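Where inhibition never reached the appropriate level, the endpoint shown equals the highest concentration tested. Otherwise, values were interpolated linearly from a five-concentration, 48-hour dose response in 96-well plates. Abbreviation: GI50, concentration required for 50% inhibition of growth. TGI denotes the concentration required for complete inhibition of growth.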
Assays:
Assay in all cases: NCI anticancer screen, dose series, 48 h
HOP-62 NSCLC = system: HOP-62 NSCLC
EKVX NSCLC = system: EKVX NSCLC
HL-60(TB) leukemia = system: HL-60(TB) leukemia
MALME-3M melanoma = system: MALME-3M melanoma
DU-145 prostate = system: DU-145 prostate
CCRF-CEM leukemia = system: CCRF-CEM leukemia
NCI-H460 lung = system: NCI-H460 lung
M14 melanoma = system: M14 melanoma
HOP-92 NSCLC = system: HOP-92 NSCLC
BT-549 breast = system: BT-549 breast
ACHN renal = system: ACHN renal
SN12C renal = system: SN12C renal
K-562 leukemia = system: K-562 leukemia
LOX IMVI melanoma = system: LOX IMVI melanoma
TK-10 renal = system: TK-10 renal
IGROV1 ovarian = system: IGROV1 ovarian
OVCAR-8 ovarian = system: OVCAR-8 ovarian
UACC-257 melanoma = system: UACC-257 melanoma
A549 NSCLC = system: A549 NSCLC
SW-620 colon = system: SW-620 colon
HCT-116 colon = system: HCT-116 colon
SK-MEL-28 melanoma = system: SK-MEL-28 melanoma
U251 CNS = system: U251 CNS
786-0 renal = system: 786-0 renal
NCI/ADR-RES ovarian = system: NCI/ADR-RES ovarian
OVCAR-4 ovarian = system: OVCAR-4 ovarian
MDA-MB-468 breast = system: MDA-MB-468 breast
HCT-15 colon = system: HCT-15 colon
NCI-H23 lung = system: NCI-H23 lung
SK-MEL-5 melanoma = system: SK-MEL-5 melanoma
RXF 393 renal = system: RXF 393 renal
SR leukemia = system: SR leukemia
RPMI-8226 leukemia = system: RPMI-8226 leukemia
SF-539 CNS = system: SF-539 CNS
SF-295 CNS = system: SF-295 CNS
MOLT-4 leukemia = system: MOLT-4 leukemia
NCI-H522 lung = system: NCI-H522 lung
KM12 colon = system: KM12 colon
MCF7 breast = system: MCF7 breast
COLO 205 colon = system: COLO 205 colon
PC-3 prostate = system: PC-3 prostate
UACC-62 melanoma = system: UACC-62 melanoma
MDA-MB-435 = system: MDA-MB-435
HT29 colon = system: HT29 colon
SK-OV-3 ovarian = system: SK-OV-3 ovarian
A498 renal = system: A498 renal
SNB-19 CNS = system: SNB-19 CNS
NCI-H226 lung = system: NCI-H226 lung
T-47D breast = system: T-47D breast
OVCAR-3 ovarian = system: OVCAR-3 ovarian
SF-268 CNS = system: SF-268 CNS
HCC-2998 colon = system: HCC-2998 colon
CAKI-1 renal = system: CAKI-1 renal
OVCAR-5 ovarian = system: OVCAR-5 ovarian
HS 578T breast = system: HS 578T breast

## NCCCCn1c(SCCc2c[nH]c3ccccc23)nnc1-c1ccc2ccccc2n1
HOP-62 NSCLC
  GI50: 5.35 µM
  TGI: 10.5 µM
EKVX NSCLC
  GI50: 5.32 µM
  TGI: 10.6 µM
HL-60(TB) leukemia
  GI50: 4.99 µM
  TGI: 11.4 µM
MALME-3M melanoma
  GI50: 5.35 µM
  TGI: 10.3 µM
DU-145 prostate
  GI50: 6.51 µM
  TGI: 12.2 µM
CCRF-CEM leukemia
  GI50: 7.21 µM
  TGI: 20.3 µM
NCI-H460 lung
  GI50: 6.17 µM
  TGI: 11.7 µM
M14 melanoma
  GI50: 5.48 µM
  TGI: 10.4 µM
HOP-92 NSCLC
  GI50: 4.59 µM
  TGI: 10.5 µM
BT-549 breast
  GI50: 5.67 µM
  TGI: 10.7 µM
ACHN renal
  GI50: 5.42 µM
  TGI: 10.3 µM
SN12C renal
  GI50: 5.6 µM
  TGI: 10.5 µM
K-562 leukemia
  GI50: 5.58 µM
  TGI: 13.2 µM
LOX IMVI melanoma
  GI50: 5.28 µM
  TGI: 10 µM
TK-10 renal
  GI50: 5.91 µM
  TGI: 10.9 µM
IGROV1 ovarian
  GI50: 5.84 µM
  TGI: 11.1 µM
OVCAR-8 ovarian
  GI50: 5.63 µM
  TGI: 10.8 µM
UACC-257 melanoma
  GI50: 5.78 µM
  TGI: 11 µM
A549 NSCLC
  GI50: 5.1 µM
  TGI: 9.87 µM
SW-620 colon
  GI50: 5.51 µM
  TGI: 11.1 µM
HCT-116 colon
  GI50: 4.74 µM
  TGI: 9.31 µM
SK-MEL-28 melanoma
  GI50: 5.94 µM
  TGI: 10.8 µM
U251 CNS
  GI50: 5.36 µM
  TGI: 10.2 µM
786-0 renal
  GI50: 5.9 µM
  TGI: 10.9 µM
NCI/ADR-RES ovarian
  GI50: 6.29 µM
  TGI: 13.4 µM
OVCAR-4 ovarian
  GI50: 5.75 µM
  TGI: 12 µM
MDA-MB-468 breast
  GI50: 4.94 µM
  TGI: 9.58 µM
HCT-15 colon
  GI50: 6.26 µM
  TGI: 11.5 µM
NCI-H23 lung
  GI50: 5.57 µM
  TGI: 10.5 µM
SK-MEL-5 melanoma
  GI50: 5.84 µM
  TGI: 10.6 µM
RXF 393 renal
  GI50: 4.8 µM
  TGI: 9.4 µM
SR leukemia
  GI50: 5.88 µM
  TGI: 12.7 µM
RPMI-8226 leukemia
  GI50: 5.41 µM
  TGI: 13.9 µM
SF-539 CNS
  GI50: 5.85 µM
  TGI: 10.6 µM
SF-295 CNS
  GI50: 5.65 µM
  TGI: 10.7 µM
MOLT-4 leukemia
  GI50: 5.47 µM
  TGI: 13.1 µM
NCI-H522 lung
  GI50: 5.35 µM
  TGI: 10.4 µM
KM12 colon
  GI50: 6.54 µM
  TGI: 12.3 µM
MCF7 breast
  GI50: 5.38 µM
  TGI: 10.4 µM
COLO 205 colon
  GI50: 4.54 µM
  TGI: 9.3 µM
PC-3 prostate
  GI50: 5.35 µM
  TGI: 11.6 µM
UACC-62 melanoma
  GI50: 5.46 µM
  TGI: 10.2 µM
MDA-MB-435
  GI50: 6.27 µM
  TGI: 11.8 µM
HT29 colon
  GI50: 5.28 µM
  TGI: 10.4 µM
SK-OV-3 ovarian
  GI50: 5.69 µM
  TGI: 11.2 µM
A498 renal
  GI50: 6.06 µM
  TGI: 11.2 µM
SNB-19 CNS
  GI50: 6.3 µM
  TGI: 12.8 µM
NCI-H226 lung
  GI50: 5.29 µM
  TGI: 10.8 µM
T-47D breast
  GI50: 6.08 µM
  TGI: 14.6 µM
OVCAR-3 ovarian
  GI50: 5.16 µM
  TGI: 10.2 µM
SF-268 CNS
  GI50: 5.69 µM
  TGI: 12.1 µM
HCC-2998 colon
  GI50: 6.01 µM
  TGI: 10.9 µM
CAKI-1 renal
  GI50: 5.74 µM
  TGI: 11.9 µM
OVCAR-5 ovarian
  GI50: 5.66 µM
  TGI: 10.8 µM
HS 578T breast
  GI50: 5.6 µM
  TGI: 14.6 µM

Reference: PubChem BioAssay (NCI)
